Results reported in patent US8816084B1, “Crystals of morphinan derivative, manufacturing method thereof, and pharmaceutical composition using the same” (priority 2013, dated 2014).

test: pH Stability Test; format: physicochemical; conditions: 100 mg solid dissolved in 10 ml deionized water, pH meter; hydrochloride
Procedure: First, 100 mg of the X-form crystal solid of Examples 1 to 3, and the amorphous solid of Comparative Examples 1-6 were dissolved in 10 ml of deionized water respectively. Then, pH value of the resulting solutions was measured with a pH meter (Type No: Mettler Toledo MP 250). The measurement results are shown in Table 3, wherein the result of the amorphous and A-form crystals of Comparative Examples 4-9 was quoted from U.S. Pat. No. 7,803,942B2.

In order of falling pH:
1. CN(C(=O)/C=C/c1ccoc1)[C@@H]1CC[C@@]2(O)[C@H]3Cc4ccc(O)c5c4[C@@]2(CCN3CC2CC2)[C@H]1O5.Cl (relative stereo) [Comparative Example 1, 17-cyclopropylmethyl-3,14β-dihydroxy-4,5α-epoxy-6β-[N-methyl-trans-3-(3-furyl)acrylamido]morphinan hydrochloride]  4.4
2. CN(C(=O)/C=C/c1ccoc1)[C@@H]1CC[C@@]2(O)[C@H]3Cc4ccc(O)c5c4[C@@]2(CCN3CC2CC2)[C@H]1O5.Cl (relative stereo) [Comparative Example 3, 17-cyclopropylmethyl-3,14β-dihydroxy-4,5α-epoxy-6β-[N-methyl-trans-3-(3-furyl)acrylamido]morphinan hydrochloride]  3.7
3. CN(C(=O)/C=C/c1ccoc1)[C@@H]1CC[C@@]2(O)[C@H]3Cc4ccc(O)c5c4[C@@]2(CCN3CC2CC2)[C@H]1O5.Cl (relative stereo) [Example 3, 17-cyclopropylmethyl-3,14β-dihydroxy-4,5α-epoxy-6β-[N-methyl-trans-3-(3-furyl)acrylamido]morphinan hydrochloride]  3.6
4. CN(C(=O)/C=C/c1ccoc1)[C@@H]1CC[C@@]2(O)[C@H]3Cc4ccc(O)c5c4[C@@]2(CCN3CC2CC2)[C@H]1O5.Cl (relative stereo) [Example 2, 17-cyclopropylmethyl-3,14β-dihydroxy-4,5α-epoxy-6β-[N-methyl-trans-3-(3-furyl)acrylamido]morphinan hydrochloride]  3.6
5. CN(C(=O)/C=C/c1ccoc1)[C@@H]1CC[C@@]2(O)[C@H]3Cc4ccc(O)c5c4[C@@]2(CCN3CC2CC2)[C@H]1O5.Cl (relative stereo) [Example 1, 17-cyclopropylmethyl-3,14β-dihydroxy-4,5α-epoxy-6β-[N-methyl-trans-3-(3-furyl)acrylamido]morphinan hydrochloride]  3.5
6. CN(C(=O)/C=C/c1ccoc1)[C@@H]1CC[C@@]2(O)[C@H]3Cc4ccc(O)c5c4[C@@]2(CCN3CC2CC2)[C@H]1O5.Cl (relative stereo) [Comparative Example 2, 17-cyclopropylmethyl-3,14β-dihydroxy-4,5α-epoxy-6β-[N-methyl-trans-3-(3-furyl)acrylamido]morphinan hydrochloride]  2.6

test: not given; conditions: result quoted from U.S. Pat. No. 7,803,942B2; hydrochloride; cited from earlier work

In order of rising pH:
1. CN(C(=O)/C=C/c1ccoc1)[C@@H]1CC[C@@]2(O)[C@H]3Cc4ccc(O)c5c4[C@@]2(CCN3CC2CC2)[C@H]1O5.Cl (relative stereo) [Comparative Example 6, 17-cyclopropylmethyl-3,14β-dihydroxy-4,5α-epoxy-6β-[N-methyl-trans-3-(3-furyl)acrylamido]morphinan hydrochloride]  3.5
2. CN(C(=O)/C=C/c1ccoc1)[C@@H]1CC[C@@]2(O)[C@H]3Cc4ccc(O)c5c4[C@@]2(CCN3CC2CC2)[C@H]1O5.Cl (relative stereo) [Comparative Example 4, 17-cyclopropylmethyl-3,14β-dihydroxy-4,5α-epoxy-6β-[N-methyl-trans-3-(3-furyl)acrylamido]morphinan hydrochloride]  3.7
3. CN(C(=O)/C=C/c1ccoc1)[C@@H]1CC[C@@]2(O)[C@H]3Cc4ccc(O)c5c4[C@@]2(CCN3CC2CC2)[C@H]1O5.Cl (relative stereo) [Comparative Example 5, 17-cyclopropylmethyl-3,14β-dihydroxy-4,5α-epoxy-6β-[N-methyl-trans-3-(3-furyl)acrylamido]morphinan hydrochloride]  4.7
4. CN(C(=O)/C=C/c1ccoc1)[C@@H]1CC[C@@]2(O)[C@H]3Cc4ccc(O)c5c4[C@@]2(CCN3CC2CC2)[C@H]1O5.Cl (relative stereo) [Comparative Example 8, 17-cyclopropylmethyl-3,14β-dihydroxy-4,5α-epoxy-6β-[N-methyl-trans-3-(3-furyl)acrylamido]morphinan hydrochloride]  5.4
5. CN(C(=O)/C=C/c1ccoc1)[C@@H]1CC[C@@]2(O)[C@H]3Cc4ccc(O)c5c4[C@@]2(CCN3CC2CC2)[C@H]1O5.Cl (relative stereo) [Comparative Example 9, 17-cyclopropylmethyl-3,14β-dihydroxy-4,5α-epoxy-6β-[N-methyl-trans-3-(3-furyl)acrylamido]morphinan hydrochloride]  5.6
6. CN(C(=O)/C=C/c1ccoc1)[C@@H]1CC[C@@]2(O)[C@H]3Cc4ccc(O)c5c4[C@@]2(CCN3CC2CC2)[C@H]1O5.Cl (relative stereo) [Comparative Example 7, 17-cyclopropylmethyl-3,14β-dihydroxy-4,5α-epoxy-6β-[N-methyl-trans-3-(3-furyl)acrylamido]morphinan hydrochloride]  5.8
